IC50 data for 34 molecules are collected here from patent publication US8288398B2, “Antiproliferative pyrimidyl, fused pyrimidyl and pyrimidyl hydrazones” (Merck Serono SA, priority 2005, dated 2012).

For assay [1], the system named is pancreatic cancer (MiaPaCa-2, human) cells. Nature of the assay: Tumor cell proliferation assay (ATP-lite), MiaPaCa-2. In kind it is cell-based. Conditions: MIA PaCa-2, 96 h; inhibition of tumor cell growth by 50%; MiaPaCa-2 human pancreatic cancer cells; 4 days incubation; ATP-lite readout. The method, then: (§1) Assay 1: Tumor Cell Proliferation Assay:
(§2) Colon cancer (C26, murine), pancreatic cancer (MiaPaCa-2, human) cells were plated in 96-well white plates (Cat. No. 3917, Corning, Inc.) at 2.5×10^3 cells/well and cultured overnight at 37° C. in 5% CO2 in DMEM containing 10% FCS. Inhibitors were serially diluted in 100% DMSO and subsequently added to cells to reach a final concentration of 0.25% DMSO. Cell plates were incubated for an additional 4 days at 37° C. and 5% CO2 and cell proliferation was quantitated using the ATP-lite cell proliferation kit (Cat. No. 6016943, Perkin Elmer).
(§3) The ATPlite kit quantifies the ATP released from lysed cells by the generation of light caused by the reaction of the released ATP with the Luciferase and D-Luciferin contained in the kit. After the 4th day of incubation, the media is removed from the cell plates and replaced with 100 μL of PBS followed by 50 μL of the lysis solution. The plates are then shaken for 5 minutes on an orbital shaker followed by the addition of 50 μL of substrate solution. The plates are shaken for an additional 5 minutes followed by dark adaptation for 10 minutes and finally read on a Victor^3 V plate reader (1 second/well, Cat. No. 1420-041, Perkin Elmer).
(§4) Columns 2-3 show the concentration of compounds required to inhibit the growth of tumor cells by 50% (IC50 in μM).

Assay [2] deals with Colon cancer (C26, murine) cells. Nature of the assay: Tumor cell proliferation assay (ATP-lite), C26. In kind it is cell-based. Conditions: Mus musculus, 96 h, inhibition of tumor cell growth by 50%, 4 days incubation, ATP-lite readout. The method, then: as §1, §2, §3, §4

A word on the IC50: it is the concentration that gives 50% inhibition. Lower therefore signals higher potency. As to `CC(=NN(C)c1nc(C(F)(F)F)nc2ccccc12)c1cccc(C)c1` [Compound 1], the IC50 in assay [1] and in assay [2] was < 1000 nM throughout.

Regarding `CC(=NNc1nc(C(F)(F)F)nc2ccccc12)c1ccc(C)cc1` [Compound 3, N-(1-p-Tolyl-ethylidene)-N′-(2-trifluoromethyl-quinazolin-4-yl)-hydrazine], the IC50 in assay [1] and in assay [2] was 1000 to 15000 nM throughout.

On to `COc1ccc(C(C)=NNc2nc(C)nc3ccccc23)cc1` [Compound 4, N-[1-(4-methoxy-phenyl)-ethylidene]-N′-(2-methyl-quinazolin-4-yl)-hydrazine], for which the IC50 in assay [1] and in assay [2] was 1000 to 15000 nM throughout.

For `CC(=NNc1nc(C)nc2ccccc12)c1ccc(C)cc1` [Compound 5, N-(2-Methyl-quinazolin-4-yl)-N-(1-p-tolyl-ethylidene)-hydrazine], the IC50 in assay [1] and in assay [2] was 1000 to 15000 nM each time.

With `CC(=NNc1nc(C)nc2ccccc12)c1cccc(C)c1` [Compound 6, N-(2-methyl-quinazolin-4-yl)-N′-(1-m-tolyl-ethylidene)-hydrazine], the IC50 in assay [1] and in assay [2] was 1000 to 15000 nM throughout.

As for `CC(=NNc1cc(-c2ccccc2)nc(C)n1)c1ccc(N(C)C)cc1` [Compound 8, Dimethyl-(4-{1-[(2-methyl-6-phenyl-pyrimidin-4-yl)-hydrazono]ethyl}-phenyl)amine], the IC50 in assay [1] and in assay [2] was < 1000 nM in each case.

As to `COc1ccccc1-c1cc(NN=C(C)c2ccc(N(C)C)cc2)nc(C)n1` [Compound 9], the IC50 in assay [1] and in assay [2] was < 1000 nM in each case.

As for `CC(=NNc1cc(-c2c(C)noc2C)nc(C)n1)c1ccc(N(C)C)cc1` [Compound 10, (4-(1-{[6-(3,5-dimethyl-isoxazol-4-yl)-2-methyl-pyrimidin-4-yl]-hydrazono}-ethyl)-phenyl]-dimethylamine], the IC50 in assay [1] and in assay [2] was < 1000 nM throughout.

`CC(=NNc1cc(-c2ccccc2OC(F)(F)F)nc(C)n1)c1ccc(N(C)C)cc1` [Compound 11, Dimethyl-[4-(1-{[2-methyl-6-(2-trifluoromethoxy-phenyl)-pyrimidin-4-yl]-hydrazono}-ethyl)-phenyl]-amine]: the IC50 in assay [1] and in assay [2] was < 1000 nM in each case.

`CC(=NNc1cc(-c2ccccc2OC(C)C)nc(C)n1)c1ccc(N(C)C)cc1` [Compound 12, [4-(1-{[6-(2-Isopropoxy-phenyl)-2-methyl-pyrimidin-4-yl]-hydrazono}-ethyl)-phenyl]-dimethylamine]: the IC50 in assay [1] was < 1000 nM; in assay [2], 1000 to 15000 nM.

`CC(=NNc1cc(-c2ccccc2F)nc(C)n1)c1ccc(N(C)C)cc1` [Compound 13, [4-(1-{[6-(2-Fluoro-phenyl)-2-methyl-pyrimidin-4-yl]-hydrazono}-ethyl)-phenyl]-dimethylamine]: the half-maximal inhibitory concentration (IC50) in assay [1] and in assay [2] was < 1000 nM in each case.

On to `CC(=NNc1cc(-c2ccccc2N)nc(C)n1)c1ccc(N(C)C)cc1` [Compound 14, [4-(1-{[6-(2-amino-phenyl)-2-methyl-pyrimidin-4-yl]-hydrazono}-ethyl)-phenyl]-dimethylamine], for which the IC50 in assay [1] and in assay [2] was < 1000 nM in each case.

Regarding `COc1nc(NN=C(C)c2ccc(N(C)C)cc2)cc(-c2ccccc2)n1` [Compound 15, (4-{1-[(2-Methoxy-6-phenyl-pyrimidin-4-yl)-hydrazono]-ethyl}-phenyl)-dimethylamine], the IC50 in assay [1] and in assay [2] was < 1000 nM in each case.

Regarding `CCc1nc(NN=C(C)c2ccc(N(C)C)cc2)cc(-c2ccccc2OC)n1` [Compound 16, [4-(1{[2-Ethyl-6-(2-methoxy-phenyl)-pyrimidin-4-yl]-hydrazono}-ethyl)-phenyl]-dimethylamine], the IC50 in assay [1] and in assay [2] was < 1000 nM in each case.

As for `COc1ccccc1-c1cc(NN=C(C)c2ccc(N(C)C)cc2)ncn1` [Compound 17, [4-(1-{[6-(2-Methoxy-phenyl)-pyrimidin-4-yl]-hydrazono}-ethyl)-phenyl]dimethyl amine], the IC50 in assay [1] and in assay [2] was < 1000 nM each time.

`CNc1ccc(C(C)=NNc2cc(-c3ccccc3)nc(C)n2)cc1` [Compound 18, Methyl-(4-{1-[(2-methyl-6-phenyl-pyrimidin-4-yl)-hydrazono]-ethyl}-phenyl)-amine]: the IC50 in assay [1] and in assay [2] was < 1000 nM throughout.

Take `CC(=NNc1cc(-c2ccccc2)nc(C)n1)c1ccc(NC(N)=S)cc1` [Compound 19, 4-({1-[(2-Methyl-6-phenyl-pyrimidin-4-yl)-hydrazono]-ethyl}-phenyl)-thiourea]: the IC50 in assay [1] and in assay [2] was 1000 to 15000 nM throughout.

For `CC(=O)Nc1ccc(C(C)=NNc2cc(-c3ccccc3)nc(C)n2)cc1` [Compound 20, N-(4-{1-[(2-Methyl-6-phenyl-pyrimidin-4-yl)-hydrazono]-ethyl}-phenyl)-acetamide], the IC50 in assay [1] and in assay [2] was 1000 to 15000 nM each time.

`CNc1ccc(C(C)=NNc2nc(C)nc(-c3ccccc3)c2N)cc1` [Compound 21, 2-Methyl-4-{N′-[1-(4-methylamino-phenyl)-ethylidene]-hydrazino}-6-phenyl-pyrimidin-5-ylamine]: the IC50 in assay [1] and in assay [2] was < 1000 nM in each case.

Turning to `CCC(=NNc1cc(-c2ccccc2)nc(C)n1)c1ccc(C)cc1` [Compound 22, N-(2-Methyl-6-phenyl-pyrimidin-4-yl)-N′-[1-p-tolyl-propylidene]-hydrazine], the IC50 in assay [1] and in assay [2] was 1000 to 15000 nM in each case.

Consider `CC(=NNc1cc(-c2ccccc2)nc(C)n1)c1ccc(Cl)cc1` [Compound 23, N-[1-(4-Chloro-phenyl)ethylidene]-N′-(2-methyl-6-phenyl-pyrimidin-4-yl)-hydrazine], for which the IC50 in assay [2] lay within 1000 to 15000 nM.

On to `COc1ccc(C(C)=NNc2cc(-c3ccccc3)nc(C)n2)cc1` [Compound 24, N-[1-(4-Methoxy-phenyl)-ethylidene]-N′-(2-methyl-6-phenyl-pyrimidin-4-yl)-hydrazine], for which the IC50 in assay [2] was < 1000 nM.

For `COc1ccccc1-c1cc(NN=C(C)c2ccc(C)cc2)ncn1` [Compound 25, N-[6-(2-Methoxy-phenyl)-pyrimidin-4-yl]-N′-[1-p-tolyl-ethylidene]-hydrazine], the IC50 in assay [1] and in assay [2] was < 1000 nM in each case.

Turning to `CCc1nc(NN=C(C)c2ccc(C)cc2)cc(-c2ccccc2OC)n1` [Compound 26, N-[2-Ethyl-6-(2-methoxy-phenyl)-pyrimidin-4-yl]-N′-[1-p-tolyl-ethylidene]-hydrazine], the IC50 in assay [1] and in assay [2] was < 1000 nM in each case.

On to `CC(=NNc1cc(-c2ccccc2F)nc(C)n1)c1ccc(C)cc1` [Compound 27, N-[6-(2-Fluoro-phenyl)-2-methyl-pyrimidin-4-yl]-N′-[1-p-tolyl-ethylidene]-hydrazine], for which the IC50 in assay [1] and in assay [2] was < 1000 nM throughout.

Take `COc1cccc(-c2cc(NN=C(C)c3ccc(C)cc3)nc(C)n2)c1` [Compound 28, N-[6-(3-Methoxy-phenyl)-2-methylpyrimidin-4-yl]-N′-[1-p-tolyl-ethylidene]-hydrazine]: in assay [1], the IC50 lay within 1000 to 15000 nM.

For `COc1ccc(-c2cc(NN=C(C)c3ccc(C)cc3)nc(C)n2)cc1` [Compound 30, N-[6-(4-Methoxy-phenyl)-2-methylpyrimidin-4-yl]-N′-[1-p-tolyl-ethylidene]-hydrazine], the IC50 in assay [1] lay in the range of 1000 to 15000 nM.

`CC(=NNc1cc(-c2cccnc2)nc(C)n1)c1ccc(C)cc1` [Compound 37, N-(2-Methyl-6-pyridin-3-yl-pyrimidin-4-yl)-N′-[1-p-tolyl-ethylidene]-hydrazine] registered an IC50 in assay [2] of 1000 to 15000 nM.

For `CCc1ccc(C(C)=NNc2cc(-c3ccccc3)nc(C)n2)cc1` [Compound 43, N-[1-(4-Ethyl-phenyl)-ethylidene]-N′-(2-methyl-6-phenyl-pyrimidin-4-yl)-hydrazine], in assay [2], the IC50 was < 1000 nM.

As to `CC(=NNc1cc(-c2ccccc2)nc(C)n1)c1ccc(Br)cc1` [Compound 44, N-[1-(4-Bromo-phenyl)-ethylidene]-N′-(2-methyl-6-phenyl-pyrimidin-4-yl)-hydrazine], in assay [2], the IC50 lay within 1000 to 15000 nM.

As for `CC(=NNc1cc(-c2ccccc2)nc(C)n1)c1ccc(I)cc1` [Compound 45, N-[1-(4-Iodo-phenyl)-ethylidene]-N′-(2-methyl-6-phenyl-pyrimidin-4-yl)-hydrazine], the IC50 in assay [2] lay within 1000 to 15000 nM.

In assay [2], `CC(=NNc1cc(-c2ccccc2)nc(C)n1)c1cccc(N)c1` [Compound 46, 3-{1-[(2-Methyl-6-phenyl-pyrimidin-4-yl)-hydrazono]-ethyl}-phenylamine] gave an IC50 of 1000 to 15000 nM.

The molecule `CC(=NNc1cc(-c2ccccc2)nc(C)n1)c1ccc(Cl)c(Cl)c1` [Compound 47, N-[1-(3,4-Dichloro-phenyl)-ethylidene]-N′-(2-methyl-6-phenyl-pyrimidin-4-yl)-hydrazine] displayed an IC50 in assay [2] of 1000 to 15000 nM.

The molecule `CC(=NNc1cc(-c2ccccc2)nc(C)n1)c1ccc(O)cc1` [Compound 48, 4-{1-[(2-Methyl-6-phenyl-pyrimidin-4-yl)-hydrazono]-ethyl}-phenol] yielded an IC50 in assay [2] of 1000 to 15000 nM.
